The results in this text go back to patent US20240408216A1, “PROTEIN INHIBITOR OR DEGRADING AGENT, PHARMACEUTICAL COMPOSITION CONTAINING SAME AND PHARMACEUTICAL USE” (JING MEDICINE TECHNOLOGY (SHANGHAI) LTD., priority 2021, published 2024).

The first experiment has as its system A431. Put plainly: Cell proliferation IC50 assay (Cell Titer GLO), A431 cells. The experiment is classed as cell-based. The settings on record: Homo sapiens, A-431; Table 6; A431, 72 h; read-out: A431 IC50. The method in brief:
(§1)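 Each cell line, plated at 2000-4000 cells/well, received serially diluted compound for 72 h (37° C, 5% CO2) before luminescent ATP-based viability detection. IC50 values were derived from growth inhibition relative to DMSO-treated and cell-free blank wells.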
(ATP-based viability assays read luminescence as a measure of living cells.)
For the molecule `CCc1cc(Nc2ncc(Cl)c(Nc3ccccc3P(C)(C)=O)n2)c(OC)cc1N1CCC(N2CCN(C3(/C=C\c4cccc5c4CN(C4CCC(=O)NC4=O)C5=O)CC3)CC2)CC1` (stereo not drawn) [Example E85], the IC50 is 1370 nM.

For `CCc1cc(Nc2ncc(-c3cc(C)n[nH]3)c(Nc3ccccc3P(C)(C)=O)n2)c(OC)cc1N1CCC(N2CCN(CCOc3ccc4c(c3)CN(C3CCC(=O)NC3=O)C4=O)CC2)CC1` (stereo not drawn) [Example E192], the IC50 was greater than 4000 nM.

For `CCc1cc(Nc2ncc(Cl)c(Nc3ccccc3P(C)(C)=O)n2)c(OC)cc1N1CCC(N2CCN(CCCCCc3cccc4c3CN(C3CCC(=O)NC3=O)C4=O)CC2)CC1` (stereo not drawn) [Example E39], the IC50 amounted to 928 nM.

Turning to `CCc1cc(Nc2ncc(-n3cnc(C)n3)c(Nc3ccccc3P(C)(C)=O)n2)c(OC)cc1N1CCC(N2CCN(CCOc3ccc4c(c3)CN(C3CCC(=O)NC3=O)C4=O)CC2)CC1` (stereo not drawn) [Example E218], the IC50 was greater than 4000 nM.

For `CCc1cc(Nc2ncc(Cl)c(Nc3ccccc3P(C)(C)=O)n2)c(OC)cc1N1CCC(N2CCN(C(=O)COc3cccc4c3CN(C3CCC(=O)NC3=O)C4=O)CC2)CC1` (stereo not drawn) [Example E82], the IC50 was 1780 nM.

In the case of `COc1cc2c(cc1Nc1ncc(Cl)c(Nc3ccccc3P(C)(C)=O)n1)CCN(C1CCN(C(=O)COc3cccc4c3CN(C3CCC(=O)NC3=O)C4=O)CC1)C2` (stereo not drawn) [Example E100], the IC50 was greater than 4000 nM.

A further experiment concerns BaF3 (EGFR WT). In words: Cell proliferation IC50 assay (Cell Titer GLO), BaF3 WT cells. The class given is cell-based. The settings on record: Mus musculus, Ba/F3 EGFR, Table 6, 10 ng/ml EGF, 72 h. The method in brief:
as §1
As to `CCc1cc(Nc2ncc(Cl)c(Nc3ccccc3P(C)(C)=O)n2)c(OC)cc1N1CCC(N2CCN(C3(/C=C\c4cccc5c4CN(C4CCC(=O)NC4=O)C5=O)CC3)CC2)CC1` (stereo not drawn) [Example E85], inhibition was half-maximal at 1880 nM (IC50).

As for `CCc1cc(Nc2ncc(-c3cc(C)n[nH]3)c(Nc3ccccc3P(C)(C)=O)n2)c(OC)cc1N1CCC(N2CCN(CCOc3ccc4c(c3)CN(C3CCC(=O)NC3=O)C4=O)CC2)CC1` (stereo not drawn) [Example E192], the IC50 was greater than 4000 nM.

The molecule `CCc1cc(Nc2ncc(Cl)c(Nc3ccccc3P(C)(C)=O)n2)c(OC)cc1N1CCC(N2CCN(CCCCCc3cccc4c3CN(C3CCC(=O)NC3=O)C4=O)CC2)CC1` (stereo not drawn) [Example E39] gave an IC50 of 250 nM.

`CCc1cc(Nc2ncc(-n3cnc(C)n3)c(Nc3ccccc3P(C)(C)=O)n2)c(OC)cc1N1CCC(N2CCN(CCOc3ccc4c(c3)CN(C3CCC(=O)NC3=O)C4=O)CC2)CC1` (stereo not drawn) [Example E218] had an IC50 of 2090 nM.

The molecule `CCc1cc(Nc2ncc(Cl)c(Nc3ccccc3P(C)(C)=O)n2)c(OC)cc1N1CCC(N2CCN(C(=O)COc3cccc4c3CN(C3CCC(=O)NC3=O)C4=O)CC2)CC1` (stereo not drawn) [Example E82] showed an IC50 of 781 nM.

`COc1cc2c(cc1Nc1ncc(Cl)c(Nc3ccccc3P(C)(C)=O)n1)CCN(C1CCN(C(=O)COc3cccc4c3CN(C3CCC(=O)NC3=O)C4=O)CC1)C2` (stereo not drawn) [Example E100] returned an IC50 of 1230 nM.

In another experiment the target is T1, BaF3 (EGFR Del19/C797S) (Homo sapiens, UniProt P00533, C797S, cells depend on it, form not given).
T1 construct: BaF3 (EGFR Del19/C797S)|DC|RPMI1640 + 10% FBS
T1 sequence (P00533 with tags, fused parts or gaps DEL746-750/C797S, form open): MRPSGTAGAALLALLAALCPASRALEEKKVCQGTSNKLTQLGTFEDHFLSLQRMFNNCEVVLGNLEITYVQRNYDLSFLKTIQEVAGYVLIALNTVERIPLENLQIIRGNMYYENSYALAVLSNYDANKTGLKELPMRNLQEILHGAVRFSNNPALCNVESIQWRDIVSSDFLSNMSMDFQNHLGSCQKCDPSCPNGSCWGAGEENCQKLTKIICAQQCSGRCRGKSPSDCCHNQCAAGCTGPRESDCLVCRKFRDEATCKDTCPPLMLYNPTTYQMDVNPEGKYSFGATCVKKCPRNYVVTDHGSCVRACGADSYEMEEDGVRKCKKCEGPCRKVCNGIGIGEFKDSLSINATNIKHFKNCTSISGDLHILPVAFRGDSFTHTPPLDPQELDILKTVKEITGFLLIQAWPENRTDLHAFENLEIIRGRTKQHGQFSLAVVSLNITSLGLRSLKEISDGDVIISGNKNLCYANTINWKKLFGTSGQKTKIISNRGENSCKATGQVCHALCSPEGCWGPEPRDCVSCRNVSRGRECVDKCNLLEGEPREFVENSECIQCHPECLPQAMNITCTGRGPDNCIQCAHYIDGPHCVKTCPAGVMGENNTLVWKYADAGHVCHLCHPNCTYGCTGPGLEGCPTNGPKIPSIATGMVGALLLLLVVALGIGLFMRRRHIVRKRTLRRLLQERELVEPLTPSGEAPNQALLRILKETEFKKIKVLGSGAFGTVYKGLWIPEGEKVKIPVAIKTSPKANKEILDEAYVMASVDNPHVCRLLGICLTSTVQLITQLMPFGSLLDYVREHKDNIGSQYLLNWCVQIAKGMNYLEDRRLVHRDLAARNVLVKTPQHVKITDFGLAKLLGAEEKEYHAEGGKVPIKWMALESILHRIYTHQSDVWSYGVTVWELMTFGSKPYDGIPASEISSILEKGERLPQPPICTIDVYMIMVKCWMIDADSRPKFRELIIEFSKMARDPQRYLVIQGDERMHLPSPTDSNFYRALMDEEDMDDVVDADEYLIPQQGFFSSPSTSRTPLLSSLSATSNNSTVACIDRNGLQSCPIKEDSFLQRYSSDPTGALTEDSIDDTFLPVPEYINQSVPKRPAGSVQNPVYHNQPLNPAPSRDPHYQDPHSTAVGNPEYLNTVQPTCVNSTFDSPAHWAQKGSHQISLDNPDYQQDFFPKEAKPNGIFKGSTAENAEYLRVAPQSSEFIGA
Put plainly: Cell proliferation IC50 assay (Cell Titer GLO), BaF3 DC cells. The experiment is classed as cell-based, mouse. The settings on record: Table 6, 72 h. The method in brief: as §1
For `CCc1cc(Nc2ncc(Cl)c(Nc3ccccc3P(C)(C)=O)n2)c(OC)cc1N1CCC(N2CCN(C3(/C=C\c4cccc5c4CN(C4CCC(=O)NC4=O)C5=O)CC3)CC2)CC1` (stereo not drawn) [Example E85], half-maximal inhibition (IC50) required 13.7 nM.

Molecule `CCc1cc(Nc2ncc(-c3cc(C)n[nH]3)c(Nc3ccccc3P(C)(C)=O)n2)c(OC)cc1N1CCC(N2CCN(CCOc3ccc4c(c3)CN(C3CCC(=O)NC3=O)C4=O)CC2)CC1` (stereo not drawn) [Example E192] yielded an IC50 of 43.8 nM.

Molecule `CCc1cc(Nc2ncc(Cl)c(Nc3ccccc3P(C)(C)=O)n2)c(OC)cc1N1CCC(N2CCN(CCCCCc3cccc4c3CN(C3CCC(=O)NC3=O)C4=O)CC2)CC1` (stereo not drawn) [Example E39] came in with an IC50 of 4.2 nM.

`CCc1cc(Nc2ncc(-n3cnc(C)n3)c(Nc3ccccc3P(C)(C)=O)n2)c(OC)cc1N1CCC(N2CCN(CCOc3ccc4c(c3)CN(C3CCC(=O)NC3=O)C4=O)CC2)CC1` (stereo not drawn) [Example E218] had an IC50 of 1 nM.

In the case of `COc1cc2c(cc1Nc1ncc(Cl)c(Nc3ccccc3P(C)(C)=O)n1)CCN(C1CCN(C(=O)COc3cccc4c3CN(C3CCC(=O)NC3=O)C4=O)CC1)C2` (stereo not drawn) [Example E100], the IC50 was 515 nM.

The test system of the next experiment is BaF3 (EGFR Del19/T790M/C797S). In words: Cell proliferation IC50 assay (Cell Titer GLO), BaF3 DTC cells. The experiment is classed as cell-based. The settings on record: Mus musculus, Ba/F3 EGFR-Del19/T790M/C797S, Table 6, 72 h. On the procedure: IC50 of compounds in the present invention was determined by Cell Titer GLO reagent from Promega. The procedures are as follows:
Tumor cells were cultured in specified medium in an incubator at 37° C. and 5% CO2. The cells were passaged periodically. Cells at the logarithmic growth phase were collected for plating at a density of 2000-4000 cells/well. The next day, the compounds of the present invention were serially diluted and added to the cells, with DMSO being the negative control and the culture media without cells being the blank control. The plate was incubated in the incubator for 72 h. The cell viability assay was performed by adding the detection reagents to the cell culture media according to Cell Titer GLO reagent instructions and detecting luminescent signals on an EnVision microplate reader (PerkinElmer).
Inhibition of cell growth by the compounds of the present invention was plotted by Prism Graphpad software for statistically calculating the IC50 of the compound of the present invention.
`CCc1cc(Nc2ncc(Cl)c(Nc3ccccc3P(C)(C)=O)n2)c(OC)cc1N1CCC(N2CCN(C(=O)COc3cccc4c3CN(C3CCC(=O)NC3=O)C4=O)CC2)CC1` (stereo not drawn) [Example E82]: it took 17 nM to reach half-maximal inhibition (IC50).

Another experiment relates to BaF3 (EGFR L858R/T790M/C797S). In words: Cell proliferation IC50 assay (Cell Titer GLO), BaF3 LTC cells. The experiment is classed as cell-based. The settings on record: Mus musculus, Ba/F3 EGFR, Table 6, 72 h. The essentials: as §1
The molecule `CCc1cc(Nc2ncc(Cl)c(Nc3ccccc3P(C)(C)=O)n2)c(OC)cc1N1CCC(N2CCN(C3(/C=C\c4cccc5c4CN(C4CCC(=O)NC4=O)C5=O)CC3)CC2)CC1` (stereo not drawn) [Example E85] showed an IC50 of 53 nM.

`CCc1cc(Nc2ncc(-c3cc(C)n[nH]3)c(Nc3ccccc3P(C)(C)=O)n2)c(OC)cc1N1CCC(N2CCN(CCOc3ccc4c(c3)CN(C3CCC(=O)NC3=O)C4=O)CC2)CC1` (stereo not drawn) [Example E192] yielded an IC50 greater than 4000 nM.

The molecule `CCc1cc(Nc2ncc(Cl)c(Nc3ccccc3P(C)(C)=O)n2)c(OC)cc1N1CCC(N2CCN(CCCCCc3cccc4c3CN(C3CCC(=O)NC3=O)C4=O)CC2)CC1` (stereo not drawn) [Example E39] yielded an IC50 of 19.2 nM.

In turn, `CCc1cc(Nc2ncc(-n3cnc(C)n3)c(Nc3ccccc3P(C)(C)=O)n2)c(OC)cc1N1CCC(N2CCN(CCOc3ccc4c(c3)CN(C3CCC(=O)NC3=O)C4=O)CC2)CC1` (stereo not drawn) [Example E218] registered an IC50 greater than 4000 nM.

Regarding `CCc1cc(Nc2ncc(Cl)c(Nc3ccccc3P(C)(C)=O)n2)c(OC)cc1N1CCC(N2CCN(C(=O)COc3cccc4c3CN(C3CCC(=O)NC3=O)C4=O)CC2)CC1` (stereo not drawn) [Example E82], the IC50 was determined as 162 nM.

For the molecule `COc1cc2c(cc1Nc1ncc(Cl)c(Nc3ccccc3P(C)(C)=O)n1)CCN(C1CCN(C(=O)COc3cccc4c3CN(C3CCC(=O)NC3=O)C4=O)CC1)C2` (stereo not drawn) [Example E100], the IC50 was determined as 1130 nM.

The IC50 is the concentration that inhibits the measured activity by half.
